Results from ChEMBL document CHEMBL1201862, “PubChem BioAssay data set” (2004).
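Results reflect a 48-hour exposure of cells in 96-well plates to compound at five concentrations. At the GI50, growth is halved.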 Activity calls are given as the source filed them. Cut-off read from the data, not from the text of the source: active = GI50 up to about 1.1 µM and inactive = higher.

Columns and labels:
Test in all cases: DTP human tumour cell line panel, 48 h
A498 = tested on: A498
A549 = tested on: A549
CAKI-1 = tested on: CAKI-1
CCRF-CEM = tested on: CCRF-CEM
COLO 205 = tested on: COLO 205
DLD-1 = tested on: DLD-1
DMS-273 = tested on: DMS-273
EKVX = tested on: EKVX
HCC 2998 = tested on: HCC 2998
HCT-116 = tested on: HCT-116
HCT-15 = tested on: HCT-15
HL-60 = tested on: HL-60
HOP-18 = tested on: HOP-18
HOP-62 = tested on: HOP-62
HOP-92 = tested on: HOP-92
HT-29 = tested on: HT-29
IGROV-1 = tested on: IGROV-1
K562 = tested on: K562
KM-20L2 = tested on: KM-20L2
KM12 = tested on: KM12
LOX IMVI = tested on: LOX IMVI
M19-MEL = tested on: M19-MEL
MCF7 = tested on: MCF7
MOLT-4 = tested on: MOLT-4
Malme-3M = tested on: Malme-3M
NCI-H226 = tested on: NCI-H226
NCI-H23 = tested on: NCI-H23
NCI-H460 = tested on: NCI-H460
NCI-H522 = tested on: NCI-H522
NCI/ADR-RES = tested on: NCI/ADR-RES
OVCAR-3 = tested on: OVCAR-3
OVCAR-4 = tested on: OVCAR-4
OVCAR-5 = tested on: OVCAR-5
OVCAR-8 = tested on: OVCAR-8
RPMI-8226 = tested on: RPMI-8226
RXF 393 = tested on: RXF 393
SF-268 = tested on: SF-268
SF-295 = tested on: SF-295
SF-539 = tested on: SF-539
SK-MEL-28 = tested on: SK-MEL-28
SK-MEL-5 = tested on: SK-MEL-5
SN12C = tested on: SN12C
SNB-75 = tested on: SNB-75
SW-620 = tested on: SW-620
U-251 = tested on: U-251
UACC-257 = tested on: UACC-257
UACC-62 = tested on: UACC-62
UO-31 = tested on: UO-31
ACHN = tested on: ACHN
DMS-114 = tested on: DMS-114
M14 = tested on: M14
SK-OV-3 = tested on: SK-OV-3
SNB-19 = tested on: SNB-19
SNB-78 = tested on: SNB-78
SR = tested on: SR
TK-10 = tested on: TK-10
786-0 = tested on: 786-0
BT-549 = tested on: BT-549
DU-145 = tested on: DU-145
Hs-578T = tested on: Hs-578T
MDA-MB-231 = tested on: MDA-MB-231
MDA-MB-435 = tested on: MDA-MB-435
MDA-N = tested on: MDA-N
PC-3 = tested on: PC-3
SK-MEL-2 = tested on: SK-MEL-2
T47D = tested on: T47D

Measured: GI50

COc1cc(C2c3cc4c(cc3[C@@H](Oc3ccc(F)cc3)C3COC(=O)[C@H]23)OCO4)cc(OC)c1O (some centres not stated)
0.364 µM: HCT-15
inactive: COLO 205 1.75 µM | EKVX > 43.8 µM | HCC 2998 2.28 µM | HOP-18 87.1 µM | HOP-92 1.2 µM | IGROV-1 1.32 µM | KM12 4.03 µM | OVCAR-3 1.75 µM | OVCAR-4 6.79 µM | OVCAR-5 > 100 µM | SK-MEL-28 3.15 µM | SN12C 3.19 µM | UO-31 > 67.5 µM
active: A498 0.236 µM | A549 0.405 µM | CAKI-1 0.456 µM | CCRF-CEM 0.368 µM | DLD-1 0.656 µM | DMS-273 0.337 µM | HCT-116 0.347 µM | HL-60 0.341 µM | HOP-62 0.267 µM | HT-29 0.284 µM | K562 0.457 µM | KM-20L2 0.286 µM | LOX IMVI 0.578 µM | M19-MEL 0.671 µM | MCF7 0.434 µM | MOLT-4 0.359 µM | Malme-3M 0.653 µM | NCI-H226 0.417 µM | NCI-H23 0.335 µM | NCI-H460 0.343 µM | NCI-H522 0.217 µM | NCI/ADR-RES 0.22 µM | OVCAR-8 0.447 µM | RPMI-8226 0.461 µM | RXF 393 0.234 µM | SF-268 0.679 µM | SF-295 0.807 µM | SF-539 0.209 µM | SK-MEL-5 0.527 µM | SNB-75 0.287 µM | SW-620 0.481 µM | U-251 0.365 µM | UACC-257 0.59 µM | UACC-62 0.518 µM

CCN(CC)CSc1nc2ccccc2[nH]1
inactive: A498 > 100 µM | A549 > 100 µM | ACHN > 100 µM | CCRF-CEM > 100 µM | DMS-114 > 100 µM | DMS-273 > 100 µM | EKVX > 100 µM | HCT-116 > 100 µM | HL-60 > 100 µM | HOP-62 > 100 µM | HOP-92 > 100 µM | HT-29 > 100 µM | IGROV-1 > 100 µM | KM12 > 100 µM | M14 > 100 µM | MOLT-4 > 100 µM | NCI-H226 > 100 µM | NCI-H23 > 100 µM | NCI-H460 > 100 µM | NCI-H522 > 100 µM | OVCAR-5 > 100 µM | OVCAR-8 > 100 µM | RXF 393 > 100 µM | SF-295 > 100 µM | SK-MEL-28 > 100 µM | SK-OV-3 > 100 µM | SNB-19 > 100 µM | SNB-78 > 100 µM | SR > 100 µM | TK-10 > 100 µM | U-251 > 100 µM | UACC-257 > 100 µM | UO-31 > 100 µM

COc1cc([C@@H]2c3cc4c(cc3[C@@H](NCCCN(C)C)[C@H]3COC(=O)[C@H]23)OCO4)cc(OC)c1O
0.513 µM: HCT-15
active: A549 0.142 µM | ACHN 0.076 µM | CCRF-CEM 0.098 µM | DMS-273 0.164 µM | EKVX 0.745 µM | HCC 2998 0.838 µM | HCT-116 0.658 µM | HL-60 0.0582 µM | HT-29 0.916 µM | IGROV-1 0.653 µM | KM-20L2 0.716 µM | KM12 0.769 µM | LOX IMVI 0.181 µM | M19-MEL 0.53 µM | MOLT-4 0.0222 µM | Malme-3M 0.379 µM | NCI-H460 0.0232 µM | NCI-H522 0.637 µM | OVCAR-3 0.849 µM | RPMI-8226 0.525 µM | SF-295 0.0995 µM | SF-539 0.376 µM | SK-MEL-5 0.212 µM | SK-OV-3 0.137 µM | SNB-19 0.22 µM | SW-620 0.346 µM | U-251 0.242 µM | UO-31 0.423 µM
inactive: OVCAR-5 1.15 µM

CCN(CC)c1ccc2cc(-c3nnc(-c4ccccc4)o3)c(=O)oc2c1
inactive: 786-0 17 µM | A498 45.9 µM | A549 16.4 µM | ACHN 18.2 µM | BT-549 > 57.1 µM | CAKI-1 > 45.7 µM | CCRF-CEM 3.89 µM | COLO 205 20.3 µM | DU-145 66.2 µM | EKVX 59.8 µM | HCC 2998 2.2 µM | HCT-116 19.9 µM | HL-60 16.6 µM | HOP-62 17.6 µM | HOP-92 > 100 µM | HT-29 25.4 µM | Hs-578T > 84.9 µM | IGROV-1 28.9 µM | K562 1.4 µM | KM12 46.7 µM | LOX IMVI 29.6 µM | M14 32.1 µM | MCF7 22.5 µM | MDA-MB-231 22.9 µM | MDA-MB-435 > 48.6 µM | MDA-N 48.5 µM | Malme-3M > 66.8 µM | NCI-H226 29.4 µM | NCI-H23 56.9 µM | NCI-H460 4.93 µM | NCI-H522 28.8 µM | NCI/ADR-RES 7.67 µM | OVCAR-3 7.05 µM | OVCAR-4 39.4 µM | OVCAR-5 56.2 µM | OVCAR-8 28.1 µM | PC-3 30.8 µM | RPMI-8226 12.1 µM | RXF 393 14.5 µM | SF-268 28 µM | SF-295 17.3 µM | SF-539 13 µM | SK-MEL-28 > 85.3 µM | SK-MEL-2 19.9 µM | SK-MEL-5 29.5 µM | SK-OV-3 14.7 µM | SN12C 31.4 µM | SNB-19 25.9 µM | SNB-75 24.3 µM | SR 6.64 µM | SW-620 30.5 µM | T47D 23.4 µM | TK-10 25.4 µM | U-251 11.3 µM | UACC-257 32.5 µM | UACC-62 36.6 µM | UO-31 19.1 µM
6.35 µM: HCT-15
active: MOLT-4 0.413 µM

O=C(CCl)N1CCCCC1C1(c2cc3ccccc3[nH]2)OCCO1 (configuration not stated)
4.82 µM: HCT-15
active: 786-0 0.869 µM | CAKI-1 0.828 µM | CCRF-CEM 0.281 µM | HL-60 0.685 µM | HOP-92 1 µM | IGROV-1 0.198 µM | LOX IMVI 0.0349 µM | NCI-H522 0.194 µM | SR 0.454 µM
inactive: A498 4.6 µM | A549 5.61 µM | ACHN 5 µM | BT-549 2.05 µM | COLO 205 2.94 µM | DU-145 5.11 µM | EKVX 1.5 µM | HCC 2998 10.4 µM | HCT-116 2.84 µM | HOP-62 3.12 µM | HT-29 3.66 µM | Hs-578T 3.3 µM | K562 1.93 µM | KM12 1.77 µM | M14 3.99 µM | MCF7 2.56 µM | MDA-MB-231 2.69 µM | MDA-MB-435 3.36 µM | MDA-N 2.34 µM | MOLT-4 1.85 µM | Malme-3M 4.47 µM | NCI-H226 6.53 µM | NCI-H23 2.21 µM | NCI-H460 9.71 µM | NCI/ADR-RES 3.05 µM | OVCAR-3 2.01 µM | OVCAR-4 1.73 µM | OVCAR-5 4.17 µM | OVCAR-8 4.24 µM | PC-3 2.98 µM | RPMI-8226 2.12 µM | RXF 393 3.8 µM | SF-268 3.22 µM | SF-295 3.77 µM | SF-539 1.65 µM | SK-MEL-28 11.6 µM | SK-MEL-2 7.98 µM | SK-MEL-5 3.08 µM | SK-OV-3 5.78 µM | SN12C 2.25 µM | SNB-19 10.6 µM | SNB-75 2.65 µM | SW-620 4.19 µM | T47D 7.45 µM | TK-10 3.5 µM | U-251 2.86 µM | UACC-257 4.7 µM | UACC-62 3.14 µM | UO-31 3.73 µM

O=C(O)/C=C/c1c[nH]c(=O)[nH]c1=O
> 250 µM: HCT-15
inactive: CCRF-CEM > 250 µM | COLO 205 > 250 µM | DLD-1 > 250 µM | EKVX > 250 µM | HCC 2998 > 250 µM | HCT-116 > 250 µM | HL-60 237 µM | IGROV-1 > 250 µM | KM12 > 250 µM | LOX IMVI > 250 µM | MOLT-4 > 250 µM | Malme-3M > 250 µM | NCI-H226 > 250 µM | NCI-H460 > 250 µM | NCI-H522 > 250 µM | NCI/ADR-RES > 250 µM | OVCAR-3 > 250 µM | OVCAR-8 > 250 µM | RPMI-8226 > 250 µM | SF-268 > 250 µM | SF-295 129 µM | SF-539 > 250 µM | SK-MEL-28 > 250 µM | SK-MEL-2 > 250 µM | SK-MEL-5 > 250 µM | SNB-19 > 250 µM | SNB-78 > 250 µM | SW-620 > 250 µM | U-251 > 250 µM | UACC-257 > 250 µM | UACC-62 > 250 µM | UO-31 > 250 µM
